Data: ChEMBL document CHEMBL1221382, “N,O-diacyl-4-benzoyl-N-phenylhydroxylamines as photoinduced DNA cleaving agents” (Bioorg Med Chem Lett, 2010)

Key:
Format in all cases: nucleic-acid assay
[1] = test system: Nucleic Acid; experiment: Induction of DNA cleavage activity in Escherichia coli pBR322 assessed as relaxed circular form after 10 mins by gel electrophoresis in presence of UV light; set-up: concentration or dose not given beside the values
[2] = test system: Nucleic Acid; experiment: Induction of DNA cleavage activity in Escherichia coli pBR322 assessed as supercoiled circular form after 10 mins by gel electrophoresis in presence of UV light; set-up: concentration or dose not given beside the values
[3] = test system: Nucleic Acid; experiment: Ratio of relaxed circular form of Escherichia coli pBR322 to supercoiled circular form of Escherichia coli pBR322 in presence of bubbling with argon gas
[4] = test system: Nucleic Acid; experiment: Ratio of relaxed circular form of Escherichia coli pBR322 to supercoiled circular form of Escherichia coli pBR322 in absence of UV light
[5] = test system: Nucleic Acid; experiment: Ratio of relaxed circular form of Escherichia coli pBR322 to supercoiled circular form of Escherichia coli pBR322 in presence of 0.1 M NaN3 solution
[6] = test system: Nucleic Acid; experiment: Induction of DNA cleavage activity in Escherichia coli pBR322 assessed as relaxed circular form after 10 mins by gel electrophoresis in presence of bubbling with argon gas; set-up: scale not given: the % may be the effect or the level left
[7] = test system: Nucleic Acid; experiment: Induction of DNA cleavage activity in Escherichia coli pBR322 assessed as relaxed circular form after 10 mins by gel electrophoresis in presence of ascorbic acid; set-up: scale not given: the % may be the effect or the level left
[8] = test system: Nucleic Acid; experiment: Induction of DNA cleavage activity in Escherichia coli pBR322 assessed as supercoiled circular form after 10 mins by gel electrophoresis in presence of ascorbic acid
[9] = test system: Nucleic Acid; experiment: Induction of DNA cleavage activity in Escherichia coli pBR322 assessed as supercoiled circular form after 10 mins by gel electrophoresis in presence of bubbling with argon gas
[10] = test system: Nucleic Acid; experiment: Induction of DNA cleavage activity in Escherichia coli pBR322 assessed as supercoiled circular form after 10 mins by gel electrophoresis in presence of 0.1 M NaN3 solution
[11] = test system: Nucleic Acid; experiment: Induction of DNA cleavage activity in Escherichia coli pBR322 assessed as relaxed circular form after 10 mins by gel electrophoresis in presence of 0.1 M NaN3 solution; set-up: scale not given: the % may be the effect or the level left
[12] = test system: Nucleic Acid; experiment: Induction of DNA cleavage activity in Escherichia coli pBR322 assessed as supercoiled circular form after 10 mins by gel electrophoresis in absence of UV light
[13] = test system: Nucleic Acid; experiment: Ratio of relaxed circular form of Escherichia coli pBR322 to supercoiled circular form of Escherichia coli pBR322 in presence of ascorbic acid
[14] = test system: Nucleic Acid; experiment: Induction of DNA cleavage activity in Escherichia coli pBR322 assessed as relaxed circular form after 10 mins by gel electrophoresis in absence of UV light; set-up: scale not given: the % may be the effect or the level left

Activity [1]	Activity [2]	SMILES	further results
35%	65%	O=C(ON(C(=O)c1ccccc1)c1ccc(C(=O)c2ccccc2)cc1)c1ccc(Cl)cc1	–
40.8%	59.2%	O=C(ON(C(=O)c1ccc(F)cc1)c1ccc(C(=O)c2ccccc2)cc1)c1ccccc1	–
36.3%	63.7%	O=C(ON(C(=O)c1ccc([N+](=O)[O-])cc1)c1ccc(C(=O)c2ccccc2)cc1)c1ccccc1	–
88.8%	11.2%	COc1ccc(C(=O)ON(C(=O)c2ccccc2)c2ccc(C(=O)c3ccccc3)cc2)cc1OC	–
62.9%	37.1%	O=C(ON(C(=O)c1ccccc1)c1ccc(C(=O)c2ccccc2)cc1)c1ccc(F)cc1	–
73.9%	25.6%	CC(=O)ON(C(=O)c1ccccc1)c1ccc(C(=O)c2ccccc2)cc1	Ratio [3]: 2.79; Ratio [4]: 0.19; Ratio [5]: 3.18; Activity [6]: 73%; Activity [7]: 23.4%; Activity [8]: 76.6%; Activity [9]: 26.1%; Activity [10]: 24.1%; Activity [11]: 76%; Activity [12]: 83.7%; Ratio [13]: 0.31; Activity [14]: 16.3%
43.4%	56.6%	O=C(ON(C(=O)c1ccccc1)c1ccc(C(=O)c2ccccc2)cc1)c1ccc([N+](=O)[O-])cc1	–
92.2%	7.83%	CC(=O)N(OC(=O)c1ccccc1)c1ccc(C(=O)c2ccccc2)cc1	–
77.1%	22.9%	COc1ccc(C(=O)N(OC(=O)c2ccccc2)c2ccc(C(=O)c3ccccc3)cc2)cc1OC	–
86.8%	13.2%	O=C(ON(C(=O)c1ccccc1)c1ccc(C(=O)c2ccccc2)cc1)c1ccccc1	–
